According to patent US11208413B2, “Pyrimidopyrimidinones useful as wee-1 kinase inhibitors” (ALMAC DISCOVERY LIMITED, priority 2017, dated 2021):
≈ marks a conversion by molar mass, not a printed value. Where two headings read alike, the source gives them in different places.

What was measured:
[1] = biological target: Wee-1 kinase (Homo sapiens, UniProt P30291); test: Wee-1 kinase inhibitory effect (Wee-1 IC50); type: biochemical; conditions: read-out: Wee1 IC50
[2] = tested on: pCDC2; test: Wee-1 potency in cells (pCDC2 value); type: cell-based
[3] = Kinetic solubility; type: physicochemical; conditions: kinetic from dmso stock
Protocol: (§1) The test methods employed to determine Wee-1 kinase inhibitory effect, Wee-1 potency in cells and kinetic solubility were the same as those taught in WO 2015/092431 (see page 350 to 358). The other test methods employed were as follows: • i. Determination of Caco-2 permeability at pH 6.5 (pH7.4 for Comparative Example 6) was carried out at Cyprotex Ltd using standard protocols and SOPs. • ii. […] Dosing was as follows: single oral dose 5 mg/kg; single intravenous dose 1 mg/kg. • iii. Determination of pharmacokinetic parameters (CUT1/2/AUC/F %) in male Sprague-Dawley rats on Comparative Example 18 was carried out at BioDuro using standard protocols and SOPs. Dosing was as follows: oral dosing 5 mg/kg; intravenous dosing 1 mg/kg • iv. […] Dosing was as follows: repeated oral dose of 30 mg/kg, once a day for 7 days. Concentrations were measured at 4 h post dose on day 7. • v. Determination of tumor:plasma concentration ratio in the tumor-bearing mouse was carried out at Axis Bioservices Ltd using standard protocols and SOPs. Dosing was as follows: single oral dose of 30 mg/kg. • vi. Determination of CYP3A4/5 time-dependent inhibition (CYP3A4/5 IC50 shift value) was carried out at Cyprotex Ltd using standard protocols and SOPs. The in-vitro test system was: pooled human liver microsomes; a 30-min preincubation step with and without NADPH was included to observe the IC50 shift. • vii. Determination of the formation of reactive metabolites was carried out at Admescope Ltd using standard protocols and SOPs. The in-vitro test system was: human hepatocytes; the duration of incubation was: 2 hours; the technique for metabolite analysis was: LC-MS/MS.

[4] = tested on: CYP3A4/5; test: CYP3A4/5 time-dependent inhibition (IC50 shift); type: in vitro ADME; conditions: pooled human liver microsomes, 30-min preincubation with and without NADPH
Protocol: as §1, with “Determination of the formation of reactive metabolites was carried out at Admescope Ltd using standard protocols and SOPs. The in-vitro test system was: human hepatocytes; the duration of incubation was: 2 hours; the technique for metabolite analysis was: LC-MS/MS.” left out

[5] = tested on: human hepatocytes; test: Formation of reactive metabolites in human hepatocytes; type: in vitro ADME; conditions: 2 hours incubation, LC-MS/MS
Protocol: as §1, with “Determination of the formation of reactive metabolites was carried out at Admescope Ltd using standard protocols and SOPs. The in-vitro test system was: human hepatocytes; the duration of incubation was: 2 hours; the technique for metabolite analysis was: LC-MS/MS.” left out

[6] = Caco-2 permeability (Papp A-B); type: in vitro ADME; conditions: human
Protocol: as §1

[7] = Brain:plasma concentration ratio in healthy mouse; type: in vivo; conditions: oral 30 mg/kg once a day for 7 days, 4 h post dose on day 7, read-out: Mouse tissue distribution brain/plasma ratio
Protocol: as §1, with “Determination of the formation of reactive metabolites was carried out at Admescope Ltd using standard protocols and SOPs. The in-vitro test system was: human hepatocytes; the duration of incubation was: 2 hours; the technique for metabolite analysis was: LC-MS/MS.” left out

[8] = Tumor:plasma concentration ratio in tumor-bearing mouse; type: in vivo; conditions: single oral dose 30 mg/kg, read-out: Mouse tissue distribution tumor/plasma ratio
Protocol: as §1, with “Determination of the formation of reactive metabolites was carried out at Admescope Ltd using standard protocols and SOPs. The in-vitro test system was: human hepatocytes; the duration of incubation was: 2 hours; the technique for metabolite analysis was: LC-MS/MS.” left out

[9] = Rat pharmacokinetics (CL, T1/2, AUC, F %); type: in vivo; conditions: male Sprague-Dawley rats; for clearance: single intravenous dose 1 mg/kg, plasma clearance, read-out: Rat PK CL; for AUC(0-inf): single oral dose 5 mg/kg, plasma exposure, read-out: Rat PK AUCinf; for half-life / bioavailability: plasma, intravenous 1 mg/kg; for half-life: elimination half-life, read-out: Rat PK T1/2 (converted); for bioavailability: oral 5 mg/kg, oral bioavailability, read-out: Rat PK F %
Protocol: as §1

[10] = Solubility in fasted state simulated gastric fluid (FaSSGF); type: physicochemical
[11] = Chemical stability in solution; type: physicochemical; conditions: Buffer at pH 7.4 and in DMSO
[12] = pH 6.5, read-out: caco-2 Papp A-B pH 6.5

Sequence of Wee-1 kinase (P30291 whole entry): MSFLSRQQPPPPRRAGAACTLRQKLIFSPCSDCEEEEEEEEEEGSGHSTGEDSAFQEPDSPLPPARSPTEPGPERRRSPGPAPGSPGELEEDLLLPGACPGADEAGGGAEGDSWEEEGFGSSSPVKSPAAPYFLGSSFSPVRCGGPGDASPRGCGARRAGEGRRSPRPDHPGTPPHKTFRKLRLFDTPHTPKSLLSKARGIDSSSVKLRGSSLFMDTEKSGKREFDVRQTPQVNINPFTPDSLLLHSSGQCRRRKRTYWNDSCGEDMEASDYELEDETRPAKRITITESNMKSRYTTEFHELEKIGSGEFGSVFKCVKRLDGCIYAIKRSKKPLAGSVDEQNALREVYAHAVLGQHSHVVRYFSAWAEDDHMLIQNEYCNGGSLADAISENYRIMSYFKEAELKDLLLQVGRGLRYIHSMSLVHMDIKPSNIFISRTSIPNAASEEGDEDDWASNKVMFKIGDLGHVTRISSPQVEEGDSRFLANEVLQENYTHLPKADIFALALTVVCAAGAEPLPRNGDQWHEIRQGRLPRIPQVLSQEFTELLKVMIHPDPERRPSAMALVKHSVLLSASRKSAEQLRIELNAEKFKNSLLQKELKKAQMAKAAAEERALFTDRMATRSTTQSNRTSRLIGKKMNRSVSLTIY

Cc1cc(Nc2ncc3c(n2)N(C)CN(c2c(C)cccc2Cl)C3=O)ccc1C1CCN(C)CC1 [CE 1, 3-(2-chloro-6-methylphenyl)-1-methyl-7-((3-methyl-4-(1-methylpiperidin-4-yl)phenyl)amino)-2,3-dihydropyrimido[4,5-d]pyrimidin-4(1H)-one]
IC50 [1]: 2.8 nM | EC50 [2]: 695 nM | solubility kinetic [3]: 189 µM (≈ 92.8 µg/mL)

Cc1cc(Nc2ncc3c(n2)N(C)CN(c2c(Cl)cccc2Cl)C3=O)ccc1N1CCNCC1 [CE 6]
IC50 [1]: 2.7 nM | CYP3A4/5 IC50 shift [4]: 2.3-3.0 | EC50 [2]: 223 nM | solubility kinetic [3]: 170 µM (≈ 84.7 µg/mL) | Reactive metabolite detected [5]: yes | Papp A→B ([6]; pH 7.4, read-out: caco-2 Papp A-B (pH 7.4)): 6.6 ×10⁻⁶ cm/s | Kp at 4 h [7]: 0.16 | Kp [8]: 5.7 | clearance [9]: 26 mL/min/kg | AUC(0-inf) [9]: 1360 ng·h/mL | half-life [9]: 3.7 h | bioavailability [9]: 41%

Cc1cc(Nc2ncc3c(n2)N(C)CN(c2c(Cl)cccc2Cl)C3=O)ccc1C1CCNCC1 [CE 18]
IC50 [1]: 3.7 nM | EC50 [2]: 223 nM | solubility kinetic [3]: 200 µM (≈ 99.5 µg/mL) | Papp A→B [6, 12]: 0.3 ×10⁻⁶ cm/s | clearance [9]: 48 mL/min/kg | AUC(0-inf) [9]: 120 ng·h/mL | bioavailability [9]: 7%

CN1CCC(c2ccc(Nc3ncc4c(n3)N(C)CN(c3c(Cl)cccc3Cl)C4=O)cc2)CC1 [CE 95]
IC50 [1]: 7.9 nM | EC50 [2]: 378 nM | solubility kinetic [3]: 123 µM (≈ 61.2 µg/mL)

CN1CCC(c2ccc(Nc3ncc4c(n3)N(C)CN(c3c(Cl)cccc3Cl)C4=O)cc2CO)CC1 [CE 165]
IC50 [1]: 3.1 nM | EC50 [2]: 347 nM | solubility kinetic [3]: 194 µM (≈ 102 µg/mL) | Papp A→B [6, 12]: 0.3 ×10⁻⁶ cm/s | clearance [9]: 27 mL/min/kg | AUC(0-inf) [9]: 397 ng·h/mL | half-life [9]: 2.1 h | bioavailability [9]: 8%

Cc1cc(Nc2ncc3c(n2)N(C)CN(c2c(Cl)cccc2Cl)C3=O)ccc1C1=CCN(C)CC1 [CE 178]
IC50 [1]: 3.2 nM | EC50 [2]: 371 nM | solubility kinetic [3]: 55 µM (≈ 28 µg/mL) | Papp A→B [6, 12]: 8.1 ×10⁻⁶ cm/s

COc1cc(Nc2ncc3c(n2)N(C)CN(c2c(Cl)cccc2Cl)C3=O)ccc1C1CCN(C)CC1 [CE 183]
IC50 [1]: 3.1 nM | EC50 [2]: 502 nM | solubility kinetic [3]: 60 µM (≈ 31.6 µg/mL)

Cc1cc(Nc2ncc3c(n2)N(C)CN(c2c(Cl)cccc2Cl)C3=O)ccc1C1CCN(C)CC1 [Example 1, 3-(2,6-dichlorophenyl)-1-methyl-7-((3-methyl-4-(1-methylpiperidin-4-yl)phenyl)amino)-2,3-dihydropyrimido[4,5-d]pyrimidin-4(1H)-one]
solubility in fasted state simulated gastric fluid (FaSSGF) [10]: improved solubility | solubility kinetic [3]: 215 µM (≈ 110 µg/mL) | chemical stability in solution [11]: improved chemical stability in solution | Reactive metabolite detected [5]: no | Papp A→B [6, 12]: 8.9 ×10⁻⁶ cm/s | Kp at 4 h [7]: 0.69 | Kp [8]: 4 | clearance [9]: 14 mL/min/kg | AUC(0-inf) [9]: 1320 ng·h/mL | half-life [9]: 4.5 h | bioavailability [9]: 35%
